Measured values published in patent publication US8859615B2, “Compounds, compositions and methods for reducing toxicity and treating or preventing diseases” (priority 2008, dated 2014).
Entries after “also recorded” stand apart in the source; their conditions may differ. Read-outs that look alike come from different tables or passages of the source.

Columns and labels:
[1] = test system: human mammary carcinoma MX-1 xenograft; assay: Therapeutic effect and body weight in nude mice bearing MX-1 xenograft, single agents; settings: for antitumor effects against MX-1 xenografts: mouse, in vivo; for body weight decrease upon treatment: up to the highest dosage levels (100 mg/kg)
Description: FIGS. 1A and 1B show the therapeutic, anti-cancer effects of various dosage regimens of panaxytriol and Compound (A), respectively, given by i.v. injection in nude mice bearing human mammary carcinoma MX-1 xenograft tumors, which is an in vivo model for breast cancer. […] The compounds were administered starting on day 8.
An in vivo assay uses male athymic nude mice bearing the nu/nu gene (6 weeks of age or older, weighing between 20 and 22 g, obtainable from NCl, Frederick, Md.) into which one or more human tumor xenografts are been implanted.
Nude mice having human mammary carcinoma xenograft MX-1 were treated with panaxytriol or Compound (A) at various dosages through the slow i.v. infusion protocol by Chou et al. (Chou, T. C., et al, Proc. Natl. Acad. Sci. U.S.A. 95: 15798 (1998), the contents of which are herein incorporated by reference in their entirety).

human PMBC lymphocytes = assay: Time course of effects on proliferation of human lymphocytes (XTT and CCK-8; Table 6); type: cell-based; settings: Lymphocyte, read-out: Dm
Description: Absorbance was measured by Powerwave a XS microplate spectrophotometer.
The effect of compounds of the invention on the proliferation of human lymphocytes at different time points are shown in Table 6 as results of XTT and CCK-8 tetrazolium assays following 24-hour, 72-hour, and 120-hour incubation. […] Cultured human PMBC lymphocytes were used in the assay. The procedures employed are taught in the General Biological Methods section.

leukemic CCRF CEM cells = assay: Precursor incorporation into DNA, RNA and protein (Table 9); type: cell-based, human
Description: The radioactive tracer studies were carried out as described by Chou T C, et al. Cancer Res. 43: 3074-3079, 1983.

human PBMC lymphocytes = assay: DNA synthesis ([3H]thymidine incorporation) in human PBMC lymphocytes (FIG. 8); type: cell-based; settings: for maximal human lymphocyte stimulation concentration: at 120 hrs, FIG. 8B, C, D
Excerpt: FIG. 8 show the effects of PHA and different concentrations of compounds of the invention, at different time points, on the proliferation of a culture of human lymphocytes as measured by DNA synthesis through incorporation of radiolabeled thymidine into the DNA.
The main principle and method of experiments for human PBMC lymphocytes and for mouse splenocytes stimulations were the same, since both measure immunological cell stimulation by PHA, PXT and compounds of the invention. Both the lymphocyte and the splenocyte assays measure the ^3H-dThd tracer as an indication of DNA synthesis. For PBMC lymphocytes (FIGS. 9A-9G), the experimental methods are those for splenocytes disclosed in Example 24 (FIGS. 11A-11F; FIGS. 12A-12E), except 0.282×10^6 PBMC lymphocyte cells in 198.5 μl was used, and the experimental incubation time was extended to 120 hr.
Briefly, to generate the data in Tables 8A and 8B, the compounds were tested in a [^3H] thymidine uptake experiment using PBMC human lymphocytes obtained from the New York Blood Center. PBMC human lymphocytes were exposed to compounds at 0.03, 0.1, 0.3, and 1.0 μM for 24 hours, and examined for increased [^3H] thymidine uptake. Human lymphocytes were also exposed to compounds for an extended time, e.g., 48 hrs and 72 hrs, instead of 24 hrs, in the [^3H] thymidine uptake assay, and examined to determine the extent of increased [^3H] thymidine uptake to determine if extended exposure will further increase the immune-enhancing effects of the compounds. Increased [^3H] thymidine uptake is interpreted as increased DNA synthesis, which indicates cell growth and division. In the case of immune system cells, this should result in an immune-enhancing effect. The compounds are compared by their IC50 values and/or their effect on [^3H] thymidine uptake at a given concentration and/or time point.

[2] = test system: normal human PBMC lymphocytes; assay: Human PBMC lymphocyte viability by actual cell counts (hemacytometer; Tables 8A, 8B, FIG. 9); type: cell-based; settings: for survival / proliferation of normal PBMC lymphocytes: low concentrations, Tables 8
Excerpt: (§1) FIGS. 9A & 9B show effects of panaxytriol and Compound D, respectively, in varying doses at 24 (▪), 72 (●), and 120 (▴) hours on human PBMC lymphocyte survival based on actual cell counts. In both cases, lower amounts of the compounds increase cell proliferation. […] Cell counts in controls without active agent were: at 24 hrs: 75.4%; at 72 hrs: 93.0%; and at 120 hrs: 85.7%. FIG. 9 parallel the experiments in FIG. 8 but used a different method to determine cell survival; the method used in FIG. 9 was actual cell counting using a hemocytometer and microscope.
(§2) The effects of panaxytriol and Compound D on the viability of normal human PBMC lymphocytes shown in Tables 8A and 8B were determined using hemacytometer/microscope determinations. PBMC cells were obtained fresh from the New York Blood Center, New York, N.Y. 10021 (Dr. S. B. Jiang). Cell counts were performed in duplicate for 0, 0.1, 0.3, 1.0, 3.0, and 10.0 μM of each compound at the end of 24 hr, 72 hr, and 120 hr incubations. Incubation was carried out in RPMI 1640 medium (GIBCO/BRL) with 10% heat inactivated fetal bovine serum. […] Acad. Sci. USA 98: 8113-8118, 2001.

[3] = as above; type: cell-based; settings: human
Excerpt: as §1, §2

[4] = Homo sapiens, CCRF-CEM, 100 μM, 60 min, ↓ (inhibition), read-out: [3H] Leu → Protein (% Activation ↑ or Inhibition ↓)
[5] = low concentration (panaxytriol 30 μM, Compound D 6 μM), 15 min incubation

C=C[C@H](O)C#CC#CC[C@H]1OC(C)(C)O[C@@H]1CCCCCCC [Compound (D)]
MX-1 xenograft suppressed by the compound by itself ([1]; 10 mg/kg i.v. Q4D×4): 10% | MX-1 xenograft inhibited ([1]; 15 mg/kg Q2D×1, 40 mg/kg Q2D×4): 38.3% | effectiveness compared with panaxytriol ([1]; MX-1 xenografts): more effective at lower doses than panaxytriol | antitumor effects against MX-1 xenografts [1]: antitumor effects | EC50 (human PMBC lymphocytes; 24 hr incubation): 1.07 µM | EC50 (human PMBC lymphocytes; 72 hr incubation): 1.52 µM | EC50 (human PMBC lymphocytes; 120 hr incubation): 1.76 µM | effect on protein synthesis (leukemic CCRF CEM cells): inhibitory effects | [3H]-AdR → RNA (% Activation ↑ or Inhibition ↓) (leukemic CCRF CEM cells; 6 μM, 15 min, ↑ (activation)): 35.3 ↑ % | [3H]-dThd → DNA (% Activation ↑ or Inhibition ↓) (leukemic CCRF CEM cells; 6 μM, 15 min, ↑ (activation)): 13.2 ↑ % | [3H]-AdR → RNA (% Activation ↑ or Inhibition ↓) (leukemic CCRF CEM cells; 100 μM, 60 min, ↓ (inhibition)): 72.5 ↓ % | [3H]-dThd → DNA (% Activation ↑ or Inhibition ↓) (leukemic CCRF CEM cells; 100 μM, 60 min, ↓ (inhibition)): 69.5 ↓ % | effect on DNA and RNA synthesis (leukemic CCRF CEM cells; 100 μM, 60 min incubation): inhibitory | inhibition at 6 µM (leukemic CCRF CEM cells; Homo sapiens, CCRF-CEM, 6 μM, 15 min, ↓ (inhibition), read-out: [3H] Leu → Protein (% Activation ↑ or Inhibition ↓)): 45.2% | inhibition at 100 µM (leukemic CCRF CEM cells; [4]): 69.5% | effect on DNA and RNA synthesis (leukemic CCRF CEM cells; [5]): activate | time of maximal stimulation of lymphocyte (human PBMC lymphocytes): 120 h | potency relative to panaxytriol (concentrations for lymphocyte or splenocyte maximal activation) (human PBMC lymphocytes; FIGS. 8, 9, 10, 11): ≥ 10 fold | maximal human lymphocyte stimulation concentration (human PBMC lymphocytes): 0.3 µM | high concentrations increasing cell death ([2]; human): 3 to 10 µM | survival / proliferation of normal PBMC lymphocytes [2]: increased the survival | viability at 24 h, 0.1 µM [3]: 101% | viability at 24 h, 0.3 µM [3]: 118% | viability at 24 h, 1 µM [3]: 78.4% | viability at 24 h, 3 µM [3]: 90.5% | viability at 24 h, 10 µM [3]: 7.5% | viability at 72 h, 0.1 µM [3]: 116% | viability at 72 h, 0.3 µM [3]: 108% | viability at 72 h, 1 µM [3]: 89.7% | viability at 72 h, 3 µM [3]: 66.8% | viability at 72 h, 10 µM [3]: 33.2% | viability at 120 h, 0.1 µM [3]: 78.2% | viability at 120 h, 0.3 µM [3]: 73.6% | viability at 120 h, 1 µM [3]: 102% | viability at 120 h, 3 µM [3]: 68% | viability at 120 h, 10 µM [3]: 27.4%

C=C[C@@H](O)C#CC#CC[C@@H](O)[C@H](O)CCCCCCC [panaxytriol]
suppression of tumor growth ([1]; 30 mg/kg): some suppression of tumor growth | tumor suppression compared to the control tumor size ([1]; Day 24, i.v. injection Q2D, escalating doses from day 8, FIGS. 1A, 1B): 52.3% | evidence of toxicity (body weight) ([1]; FIGS. 1C, 1D, i.v. injections up to 100 mg/kg): no evidence | MX-1 xenograft tumor growth suppressed by ([1]; Q2D i.v. injection 50-100 mg/kg of multiple doses (FIG. 1A)): 53% | antitumor effects against MX-1 xenografts [1]: antitumor effects | body weight decrease upon treatment [1]: no body weight decrease | body weight decrease upon treatment ([1]; listed as Panaxytriol): without a drop in body-weight | EC50 (human PMBC lymphocytes; 24 hr incubation): 1.64 µM | EC50 (human PMBC lymphocytes; 72 hr incubation): 3.48 µM | EC50 (human PMBC lymphocytes; 120 hr incubation): 3.17 µM | effect on protein synthesis (leukemic CCRF CEM cells): inhibitory effects | [3H]-AdR → RNA (% Activation ↑ or Inhibition ↓) (leukemic CCRF CEM cells; 30 μM, 15 min, ↑ (activation)): 38.0 ↑ % | [3H]-dThd → DNA (% Activation ↑ or Inhibition ↓) (leukemic CCRF CEM cells; 30 μM, 15 min, ↑ (activation)): 21.3 ↑ % | [3H]-AdR → RNA (% Activation ↑ or Inhibition ↓) (leukemic CCRF CEM cells; 100 μM, 60 min, ↓ (inhibition)): 74.4 ↓ % | [3H]-dThd → DNA (% Activation ↑ or Inhibition ↓) (leukemic CCRF CEM cells; 100 μM, 60 min, ↓ (inhibition)): 67.8 ↓ % | effect on DNA and RNA synthesis (leukemic CCRF CEM cells; 100 μM, 60 min incubation): inhibitory | inhibition at 30 µM (leukemic CCRF CEM cells; Homo sapiens, CCRF-CEM, 30 μM, 15 min, ↓ (inhibition), read-out: [3H] Leu → Protein (% Activation ↑ or Inhibition ↓)): 77.8% | inhibition at 100 µM (leukemic CCRF CEM cells; [4]): 67.8% | effect on DNA and RNA synthesis (leukemic CCRF CEM cells; [5]): activate | maximal human lymphocyte stimulation concentration (human PBMC lymphocytes): 3 µM | time of maximal activation (cell counts) ([2]; FIGS. 9A, 9B): 24 h | survival / proliferation of normal PBMC lymphocytes [2]: increased the survival; also recorded: increases the proliferation and prolongs the life-span of normal lymphocytes | viability at 24 h, 0.1 µM ([3]; 0.1 μM, 24-hrs, read-out: viable cells relative to the starting point (control)): 121% | viability at 72 h, 0.1 µM ([3]; 0.1 μM, 72-hrs, read-out: viable cells relative to the starting point (control)): 113% | viability at 120 h, 0.1 µM ([3]; 0.1 μM, 120-hrs, read-out: viable cells relative to the starting point (control)): 110% | viability at 24 h, 0.3 µM ([3]; 0.3 μM, 24-hrs, read-out: viable cells relative to the starting point (control)): 140% | viability at 72 h, 0.3 µM ([3]; 0.3 μM, 72-hrs, read-out: viable cells relative to the starting point (control)): 95.8% | viability at 120 h, 0.3 µM ([3]; 0.3 μM, 120-hrs, read-out: viable cells relative to the starting point (control)): 105% | viability at 24 h, 1 µM ([3]; 1.0 μM, 24-hrs, read-out: viable cells relative to the starting point (control)): 123% | viability at 72 h, 1 µM ([3]; 1.0 μM, 72-hrs, read-out: viable cells relative to the starting point (control)): 102% | viability at 120 h, 1 µM ([3]; 1.0 μM, 120-hrs, read-out: viable cells relative to the starting point (control)): 101% | viability at 24 h, 3 µM ([3]; 3.0 μM, 24-hrs, read-out: viable cells relative to the starting point (control)): 104% | viability at 72 h, 3 µM ([3]; 3.0 μM, 72-hrs, read-out: viable cells relative to the starting point (control)): 82.2% | viability at 120 h, 3 µM ([3]; 3.0 μM, 120-hrs, read-out: viable cells relative to the starting point (control)): 74.1% | viability at 24 h, 10 µM ([3]; 10.0 μM, 24-hrs, read-out: viable cells relative to the starting point (control)): 27.7% | viability at 72 h, 10 µM ([3]; 10.0 μM, 72-hrs, read-out: viable cells relative to the starting point (control)): 28.5% | viability at 120 h, 10 µM ([3]; 10.0 μM, 120-hrs, read-out: viable cells relative to the starting point (control)): 35.5%
